biological target: SARS-CoV-2 3CL-protease (Severe acute respiratory syndrome coronavirus 2, UniProt P0DTD1); assay: SARS-CoV-2 3C-Like (3CL) Protease Fluorescence Assay (FRET); type: biochemical; details: SARS-CoV-2 3CL-protease 10 nM, 30 min preincubation at RT, substrate 40 μM

SMILES | IC50 [nM]
CC(C)C[C@@H](C(=O)N1C[C@]2(C[C@H]1C#N)C(=O)Nc1ccccc12)N(C)C(=O)c1cn(-c2ccccn2)nn1 [Example 267] | < 100
CN(C(=O)c1cc2cnccc2[nH]1)[C@@H](CC1CC1)C(=O)N1C[C@]2(C[C@H]1C#N)C(=O)Nc1ccc(Cl)cc12 [Example 457] | < 100
CC(C)C[C@@H](C(=O)N1C[C@]2(C[C@H]1C#N)C(=O)Nc1ccccc12)N(C)C(=O)c1cnc2c(C(F)(F)F)cccc2c1 [Example 268] | 100 to 1000
CC(C)(C)C[C@H](NC(=O)c1ccc2ncc(C(F)(F)F)cc2c1)C(=O)N1C[C@]2(C[C@H]1C#N)C(=O)Nc1ccccc12 [Example 134] | 100 to 1000
CCCC[C@H](NC(=O)[C@H](O)c1ccc(F)cc1)C(=O)N1C[C@]2(C[C@H]1C#N)C(=O)Nc1ccccc12 [Example 419] | < 100
CC(C)C[C@@H](C(=O)N1C[C@]2(C[C@H]1C#N)C(=O)Nc1ccccc12)N(C)C(=O)c1ccc(-c2ccccc2)cc1 [Example 277] | 100 to 1000
CC(C)C[C@@H](C(=O)N1C[C@]2(C[C@H]1C#N)C(=O)Nc1ccccc12)N(C)C(=O)c1ccc2nn(C3CC3)cc2c1 [Example 339] | 100 to 1000
CCCC[C@@H](C(=O)N1C[C@]2(C[C@H]1C#N)C(=O)Nc1ccccc12)N(C)C(=O)c1cc2c(F)cc(F)cc2[nH]1 [Example 384] | < 100
[2H]C([2H])([2H])N(C(=O)Cc1ccncc1)[C@@H](CC(C)(C)F)C(=O)N1C[C@]2(C[C@H]1C#N)C(=O)Nc1ccc(Cl)cc12 [Example 474] | < 100
CN(C(=O)C(F)(F)c1ccncc1)[C@@H](CC(C)(C)F)C(=O)N1C[C@]2(C[C@H]1C#N)C(=O)Nc1ccc(Cl)cc12 [Example 480] | < 100
Cc1ccc2cc(C(=O)N(C)[C@@H](CC(C)C)C(=O)N3C[C@]4(C[C@H]3C#N)C(=O)Nc3ccccc34)cc(OC3CC3)c2n1 [Example 321] | < 100
CC(C)C[C@@H](C(=O)N1C[C@]2(C[C@H]1C=O)C(=O)Nc1ccccc12)N(C)C(=O)c1cc2c(F)cc(F)c(F)c2[nH]1 [Example 150] | < 100
CC(C)C[C@@H](C(=O)N1C[C@]2(C[C@H]1C#N)C(=O)Nc1ccccc12)N(C)C(=O)c1cccc(N)n1 [Example 199] | 100 to 1000
CC(C)C[C@@H](C(=O)N1C[C@]2(C[C@H]1C#N)C(=O)Nc1ccccc12)N(C)C(=O)c1cc(F)cc(Cl)c1 [Example 173] | < 100
CC(C)C[C@@H](C(=O)N1C[C@]2(C[C@H]1C#N)C(=O)Nc1ccccc12)N(C)C(=O)c1nnn(C(C)(C)C)n1 [Example 356] | < 100
CC(C)C[C@@H](C(=O)N1C[C@]2(C[C@H]1C#N)C(=O)Nc1ccccc12)N(C)C(=O)c1cc(OC2CC2)n2nc(C3CC3)c(C(=O)C(F)(F)F)c2c1 [Example 313] | 100 to 1000
CC(C)C[C@@H](C(=O)N1C[C@]2(C[C@H]1C#N)C(=O)Nc1ccccc12)N(C)C(=O)c1ccc2nc(N)sc2c1 [Example 225] | > 1000
CC(C)C[C@@H](C(=O)N1C[C@]2(C[C@H]1C#N)C(=O)Nc1ccccc12)N(C)C(=O)c1cccc(-c2cccc(Cl)c2)c1 [Example 266] | 100 to 1000
CC(C)C[C@@H](C(=O)N1C[C@]2(C[C@H]1C#N)C(=O)Nc1ccccc12)N(C)C(=O)CCNC(=O)c1ccc(F)cc1F [Example 368] | < 100

SMILES | IC50 [nM]
Cc1cccc(C)c1NC(=O)N[C@@H](CC(C)(C)C)C(=O)N1C[C@]2(C[C@H]1C#N)C(=O)Nc1ccccc12 [Example 438] | 100 to 1000
CC(C)C[C@@H](C(=O)N1C[C@]2(C[C@H]1C#N)C(=O)Nc1ccccc12)N(C)C(=O)c1c(F)ccc2ccncc12 [Example 299] | < 100
CC(C)C[C@@H](C(=O)N1C[C@]2(C[C@H]1C#N)C(=O)Nc1ccccc12)N(C)C(=O)c1cc(OC2CC2)c2nc(Cl)ccc2c1 [Example 310] | < 100
CC(C)C[C@@H](C(=O)N1C[C@]2(C[C@H]1C#N)C(=O)Nc1ccccc12)N(C)C(=O)c1cccc(-c2ccccc2C#N)c1 [Example 278] | < 100
[2H]C([2H])([2H])N(C(=O)c1cn(C2CC2)nn1)[C@@H](CC(C)(C)C)C(=O)N1C[C@]2(C[C@H]1C#N)C(=O)Nc1ccccc12 [Example 378] | < 100
CC(C)C[C@@H](C(=O)N1C[C@]2(C[C@H]1C#N)C(=O)Nc1ccccc12)N(C)C(=O)[C@@H]1CCN(C(=O)OC(C)(C)C)C1 [Example 345] | < 100
CN(C(=O)c1cc2c(F)cc(F)c(F)c2[nH]1)[C@@H](CCC(C)(C)C)C(=O)N1C[C@]2(C[C@H]1C#N)C(=O)Nc1ccccc12 [Example 412] | < 100
CC(C)C[C@@H](C(=O)N1C[C@]2(C[C@H]1C#N)C(=O)Nc1ccccc12)N(C)C(=O)c1ccc(C#N)c(Cl)c1 [Example 165] | 100 to 1000
CN(C(=O)c1cc2cccnc2[nH]1)[C@@H](CC(C)(C)F)C(=O)N1C[C@]2(C[C@H]1C#N)C(=O)Nc1ccc(Cl)cc12 [Example 470] | < 100
Cc1cnc2[nH]c(C(=O)N(C)[C@@H](CC3CC3)C(=O)N3C[C@]4(C[C@H]3C#N)C(=O)Nc3ccc(Cl)cc34)cc2c1 [Example 461] | < 100
CC(C)C[C@@H](C(=O)N1C[C@]2(C[C@H]1C#N)C(=O)Nc1ccccc12)N(C)C(=O)c1ccn(C)n1 [Example 204] | 100 to 1000
CN(C(=O)c1cn(C2CCC2)nn1)[C@@H](Cc1ccccc1)C(=O)N1C[C@]2(C[C@H]1C#N)C(=O)Nc1ccccc12 [Example 358] | < 100
CC(C)(C)C[C@H](NC(=O)Nc1ccc(F)cc1F)C(=O)N1C[C@]2(C[C@H]1C#N)C(=O)Nc1ccccc12 [Example 436] | 100 to 1000
CCCC[C@@H](C(=O)N1C[C@]2(C[C@H]1C#N)C(=O)Nc1ccccc12)N(C)C(=O)c1cnn(C(C)(C)C)c1 [Example 408] | < 100
CC(C)C[C@@H](C(=O)N1C[C@]2(C[C@H]1C#N)C(=O)Nc1ccccc12)N(C)C(=O)CCNC(=O)OC(C)(C)C [Example 366] | < 100
CC(C)C[C@@H](C(=O)N1C[C@]2(C[C@H]1C#N)C(=O)Nc1ccccc12)N(C)C(=O)c1ccc2ccsc2c1 [Example 246] | 100 to 1000
CC(C)C[C@@H](C(=O)N1C[C@]2(C[C@H]1C#N)C(=O)Nc1ccccc12)N(C)C(=O)CC1CC1 [Example 364] | < 100
CC(C)C[C@@H](C(=O)N1C[C@]2(C[C@H]1C#N)C(=O)Nc1ccc(Br)cc12)N(C)C(=O)c1cc2c(F)cc(F)cc2[nH]1 [Example 508] | < 100
Cc1cnc2ccc(C(=O)N[C@@H](CC(C)(C)C)C(=O)N3C[C@]4(C[C@H]3C#N)C(=O)Nc3ccccc34)cc2c1 [Example 135] | < 100

SMILES | IC50 [nM]
Cc1ccc2cc(C(=O)N(C)[C@@H](CC3CC3)C(=O)N3C[C@]4(C[C@H]3C#N)C(=O)Nc3ccc(Cl)cc34)[nH]c2n1 [Example 462] | < 100
CC(C)C[C@@H](C(=O)N1C[C@]2(C[C@H]1C#N)C(=O)Nc1ccccc12)N(C)C(=O)c1ccc2ccccc2c1 [Example 219] | 100 to 1000
N#C[C@@H]1C[C@@]2(CN1C(=O)[C@H](COCc1cnn[nH]1)NC(=O)c1cc3c(F)cc(F)cc3[nH]1)C(=O)Nc1ccccc12 [Example 129] | > 1000
Cc1cccc(C(F)(F)C(=O)N(C)[C@@H](CC(C)(C)F)C(=O)N2C[C@]3(C[C@H]2C#N)C(=O)Nc2ccc(Cl)cc23)n1 [Example 486] | < 100
CN(C(=O)c1cc2c(F)cc(F)cc2[nH]1)[C@@H](CC(C)(C)O)C(=O)N1C[C@]2(C[C@H]1C#N)C(=O)Nc1ccccc12 [Example 443] | 100 to 1000
CC(C)C[C@@H](C(=O)N1C[C@]2(C[C@H]1C#N)C(=O)Nc1ccccc12)N(C)C(=O)c1ccc(Cl)cc1 [Example 163] | 100 to 1000
CC(C)C[C@@H](C(=O)N1C[C@]2(C[C@H]1C#N)C(=O)Nc1ccc(-c3ccoc3)cc12)N(C)C(=O)c1cc2c(F)cc(F)cc2[nH]1 [Example 512] | < 100
CC(C)C[C@@H](C(=O)N1C[C@]2(C[C@H]1C#N)C(=O)Nc1ccc(-c3cnoc3)cc12)N(C)C(=O)c1cc2c(F)cc(F)cc2[nH]1 [Example 515] | < 100
[2H]C([2H])([2H])N(C(=O)c1cnn(C(C)(C)C)c1C(F)(F)F)[C@@H](CC1CC1)C(=O)N1C[C@]2(C[C@H]1C#N)C(=O)Nc1ccccc12 [Example 400] | < 100
CC(C)C[C@@H](C(=O)N1C[C@]2(C[C@H]1C#N)C(=O)Nc1ccccc12)N(C)C(=O)c1cc(F)c2nn(C3CC3)cc2c1 [Example 311] | 100 to 1000
COc1ccc(C(=O)N(C)[C@@H](CC(C)C)C(=O)N2C[C@]3(C[C@H]2C#N)C(=O)Nc2ccccc23)cc1F [Example 182] | < 100
CC(C)C[C@@H](C(=O)N1C[C@]2(C[C@H]1C#N)C(=O)Nc1ccccc12)N(C)C(=O)c1ccc(F)c2ccccc12 [Example 221] | < 100
CC(C)C[C@@H](C(=O)N1C[C@]2(C[C@H]1C#N)C(=O)Nc1ccccc12)N(C)C(=O)c1ccc2cccnc2c1 [Example 218] | 100 to 1000
CC(C)C[C@@H](C(=O)N1C[C@]2(C[C@H]1C#N)C(=O)Nc1ccccc12)N(C)C(=O)c1ccc(Cl)cc1Cl [Example 168] | < 100
Cc1c(C(=O)N[C@@H](CC2CC2)C(=O)N2C[C@]3(C[C@H]2C#N)C(=O)Nc2ccc(Cl)cc23)sc2cccc(F)c12 [Example 519, N—((S)-1-((3R,5′S)-5-chloro-5′-cyano-2-oxospiro[indoline-3,3′-pyrrolidin]-1′-yl)-3-cyclopropyl-1-oxopropan-2-yl)-4-fluoro-3-methylbenzo[b]thiophene-2-carboxamide] | < 100
CC(C)(C)C[C@H](NC(=O)c1ccc2ncc(C3CC3)cc2c1)C(=O)N1C[C@]2(C[C@H]1C#N)C(=O)Nc1ccccc12 [Example 136] | < 100
CN(C(=O)c1cnc(C(F)(F)F)[nH]1)[C@@H](CC1CC1)C(=O)N1C[C@]2(C[C@H]1C#N)C(=O)Nc1ccccc12 [Example 407] | < 100
COC(=O)c1ccc2c(c1)[C@@]1(C[C@@H](C#N)N(C(=O)[C@H](CC(C)C)N(C)C(=O)c3cc4c(F)cc(F)cc4[nH]3)C1)C(=O)N2 [Example 501, methyl (3R,5′S)-5′-cyano-1′-(N-(4,6-difluoro-1H-indole-2-carbonyl)-N-methyl-L-leucyl)-2-oxospiro[indoline-3,3′-pyrrolidine]-5-carboxylate] | < 100
